Tested on: protein deposits (i.e., lysozyme) from Group IV lenses
Experiment: In vitro cleaning efficacy: removal of lysozyme deposits from soiled contact lenses
Experimental: The formulations shown in Table 1 below were tested to evaluate the ability of the multifunctional surfactants described above to remove protein deposits (i.e., lysozyme) from Group IV lenses. The cleaning performance was compared to conventional cleaning agents. The test procedures are described below, and the cleaning results are set forth at the bottom of Table 1.
The materials and methods utilized in the evaluation were as follows: 1.311 g of monobasic sodium phosphate (monohydrate), 5.74 g of dibasic sodium phosphate (anhydrous), and 9.0 g of sodium chloride were dissolved in deionized water and the volume was brought to 1000 mL with deionized water after completely dissolving the solutes and adjusting pH (if needed). The final concentrations of sodium phosphate and sodium chloride were 0.05 M and 0.9 w/v %, respectively. The final pH was 7.4.
A 1.0-mg/mL lysozyme solution was prepared by dissolving 500 mg of lysozyme in 500-mL of phosphate buffered saline.
A lens extraction solution was prepared by mixing 1.0 mL of trifluoroacetic acid with 500-mL of acetonitrile and 500 mL of deionized water. The pH of the solution ranged from 1.5 to 2.0.
Each lens was immersed with 5 mL of lysozyme solution in a Wheaton glass sample vial. The vial was closed with a plastic snap cap and incubated in a constant temperature water bath at 37° C. for 24 hours. After incubation, the deposited lens was removed from the vial and rinsed by dipping into three consecutive beakers containing 50 mL of deionized water to remove any excess of the deposition solution. The lens was then blotted gently with a laboratory towel (Kaydry EX-L, from Kimberly-Clark). These lenses were used as a soiled lenses for the evaluation of cleaning efficacy of the test solutions.
The lens was immersed in a Wheaton glass sample vial containing 5 mL of UNISOL® 4 saline solution. The vial was closed with a plastic snap cap held secure with a metal clasp to prevent the cap from popping off during the thermal treatment. […]
Each soiled lens was soaked and shaken with 5 mL of the test solution in a scintillation vial at room temperature for 12 hours. […] The clean lenses were then subjected to the extraction procedure described below, and the amount of lysozyme present in the soaking solutions was measured with a fluorescence spectrophotometer. […]
A quantitative determination of the amount of lysozyme in the lens extract solution and lens soaking solutions was carried out by a fluorescence spectrophotometer interfaced with an autosampler and a computer. The fluorescence intensity of a 2 mL aliquot from each sample solution was measured by setting the excitation/emission wavelength at 280 nm/346 nm with excitation/emission slits of 2.5 nm/10 nm, respectively, and the sensitivity of the photomultiplier was set at 950 volts. […]

## CCCCCCCCCCCC(=O)N(CCN(CC(=O)[O-])CC(=O)[O-])CC(=O)[O-].[Na+].[Na+].[Na+] [LED3A, lauroyl ethylene diaminetriacetate]
LED3A 0.03% in borate buffered vehicle containing 0.6% sodium citrate
  cleaning efficacy: 29.5%
LED3A 0.075% in borate buffered vehicle containing 0.6% sodium citrate
  cleaning efficacy: 47.5%
LED3A 0.1% in borate buffered vehicle containing 0.6% sodium citrate
  cleaning efficacy: 56.0%
LED3A 0.2% in borate buffered vehicle containing 0.6% sodium citrate
  cleaning efficacy: 60.2%

Reference: US6995123B2, “Use of multifunctional surface active agents to clean contact lenses” (Alcon, Inc., priority 2002, dated 2006)
